{"source": "patent US12642805B2", "about": "“Use of oxygenated cholesterol sulfates for treating at least one of insulin resistance, diabetes, and prediabetes” (Medicis Pharmaceutical Corporation, priority 2020, dated 2026)", "assay_type_in_all_cases": "in vivo, rat", "key": {"[1]": {"assay": "excretion mass balance after single intravenous dose", "details": "rats, 10 mg/kg intravenous, over 168 hours", "procedure": "(§1) Nine male Sprague Dawley rats (Group 1) were designated for the pharmacokinetic phase, 3 male Sprague Dawley rats (Group 2) for the excretion mass balance phase, and 7 male Sprague Dawley rats (Group 3) and 9 male Long Evans rats (Group 4) for the tissue distribution phase. All animals received a single intravenous dose of [1^4C]-25HC3S at 10 mg/kg and a target radioactivity of 225 μCi/kg. Blood samples were collected from all Group 1 animals at approximately 0.083, 0.25, 0.5, 1, 2, 4, 8, 12, 24, 48, and 72 hours post-dose. Urine and feces were collected from all Group 2 animals periodically through 168 hours post-dose. […] Following blood collection, animals were euthanized by CO2 inhalation and carcasses frozen in a dry ice/hexane bath for processing by quantitative whole body autoradiography. Whole blood, plasma, urine, feces, cage rinse, and cage wash were analyzed for total radioactivity by liquid scintillation counting."}, "[2]": {"assay": "quantitative whole body autoradiography tissue distribution, intravenous, Sprague Dawley rats", "details": "10 mg/kg intravenous", "procedure": "as §1"}, "[3]": {"assay": "quantitative whole body autoradiography tissue distribution, oral, Sprague Dawley rats", "details": "75 mg/kg oral", "from_the_text": "No [1^4C]-25HC3S-derived radioactivity was detected in the eye (lens)."}, "[4]": {"assay": "plasma pharmacokinetics of radioactivity after single intravenous dose", "details": "rats, 10 mg/kg single intravenous bolus", "procedure": "as §1"}, "[5]": {"assay": "plasma pharmacokinetics of radioactivity after single oral (gavage) dose", "details": "rats, 75 mg/kg single oral (gavage)", "procedure": "The terminal elimination phase T1/2 was 27.3 hours."}, "[6]": {"assay": "quantitative whole body autoradiography tissue distribution, intravenous, Long Evans rats", "details": "10 mg/kg intravenous", "procedure": "as §1"}}, "data": [{"smiles": "C[C@H](CCCC(C)(C)O)[C@H]1CC[C@H]2[C@@H]3CC=C4[14CH2][C@@H](OS(=O)(=O)O)CC[C@]4(C)[C@H]3CC[C@]12C", "note": "[[4-^14C]-25HC3S]", "values": [{"measurement": "recovered radioactivity in feces", "setting": "[1]", "value": 83.0, "unit": "%"}, {"measurement": "T1/2 in plasma (QWBA phase)", "setting": "[2]", "value": 44.3, "unit": "h"}, {"measurement": "T1/2 in whole blood (QWBA phase)", "setting": "[2]", "value": 52.2, "unit": "h"}, {"measurement": "maximum plasma concentration (QWBA phase)", "setting": "[2]", "value": "12,400 ng-equiv./g"}, {"measurement": "plasma:whole blood AUClast ratio", "setting": "[2]", "value": 0.79}, {"measurement": "tissue:plasma ratio (AUClast), liver", "setting": "[2]", "value": 11.4}, {"measurement": "tissue:plasma ratio (AUClast), small intestine (wall)", "setting": "[2]", "value": 7.44}, {"measurement": "tissues in which radioactivity was detected", "setting": "[2]", "value": "all tissues except the eye (lens)"}, {"measurement": "Skin, thymus, prostate, and pituitary tissue concentrations", "setting": "[3]", "value": "< 3000", "unit": "ng equiv./g"}, {"measurement": "Uveal tract and brain concentrations", "setting": "[3]", "value": "approximately 1000 ng equiv./g"}, {"measurement": "tissue Tmax", "setting": "[3]", "value": "≤ 6", "unit": "h"}, {"measurement": "tissue:plasma ratio (AUClast), adrenal gland", "setting": "[3]", "value": 6.64}, {"measurement": "tissue:plasma ratio (AUClast), liver", "setting": "[3]", "value": 6.96}, {"measurement": "tissue:plasma ratio (AUClast), small intestine (wall)", "setting": "[3]", "value": 15.4}, {"measurement": "tissues in which radioactivity was detected", "setting": "[3]", "value": "all tissues except the eye (lens)"}, {"measurement": "mean plasma C0 (radioactivity)", "setting": "[4]", "value": "25,900 ng-equiv./g"}, {"measurement": "terminal elimination phase T1/2, plasma", "setting": "[5]", "value": 27.3, "unit": "h"}, {"measurement": "time by which plasma and whole blood concentrations were below quantitation limit", "setting": "[6]; Long Evans (pigmented) rats", "value": "≤ 336", "unit": "h"}, {"measurement": "binding to pigmented or non-pigmented skin or the uveal tract", "setting": "[6]; Long Evans rats", "value": "no difference in binding to pigmented or non-pigmented skin or the uveal tract"}, {"measurement": "time by which concentrations in skin and uveal tract tissues were below quantitation limit", "setting": "[6]; Long Evans rats", "value": "≤ 168", "unit": "h"}]}]}
